Test results as given in US20240360122A1, “POLYMORPHIC FORMS AND SALTS OF A GLP-1R AGONIST” (Terns (Suzhou) Biotechnology Co., Ltd., priority 2023, published 2024).
“Also recorded” adds a separate entry of the source. Where a name gives a salt, the structure may show the parent alone. Read-outs that look alike come from different tables or passages of the source.

Experiments:
Type in all cases: physicochemical
[1] = pH solubility in pH 1.0-8.0 buffers at RT; settings: thermodynamic from solid; for solubility: pH buffers, 2 and 24 hours
Procedure: The procedures were listed below:
1. […] Add 2 ml, of the corresponding medium.
2. Mixed well and stirred at RT (1000 rpm). Check the pH and adjust it back to the target pH after dosing.
3. Sampled after 2 hours and 24 hours. The supernatant was isolated by centrifugation (12000 rpm, 5 min) and filtration (0.22 μm, PTFE) for pH and HPLC test.

[2] = Slurry competition among Meglumine salt Type A/B/C; settings: slurry competition in DMSO/EtOAc (1:6, v/v), RT and 50° C.
Procedure: The detailed procedures are as following:
Add 1 mL corresponding solvent.
2) Magnetically stir at RT or 50° C. for 1 day. Filter through 0.45 μm PTFE filter to obtain clear solution.
4) Magnetically stir at RT or 50° C. for 1 day. Test XRPD of the wet cake.

[3] = Competitive experiments of Type A and Type B in different solvent system at different temperature; settings: different ratio of DMSO/EA system at different temperature
[4] = Approximate solubility in different solvents at RT
Procedure: For each experiment, approximately 2 mg of sample was added into a 3-mL glass vial. Corresponding solvents were then added stepwise (50/50/200/700/1000 μL) into the vials until the solids were dissolved visually or a total volume of 2 mL was reached. Solubility results summarized in Table 64 to Table 66 were used to guide the solvent selection in polymorph screening design.

[5] = Solid state stability at 25° C./60% RH and 40° C./75% RH for 1 week; settings: for HPLC peak Area, RRT 1.00: main peak
Procedure: Each sample was added into a glass vial, sealed by parafilm with several holes, and kept under tested conditions. After one week, samples were taken for XRPD and HPLC purity test.

[6] = Solubility of Meglumine salt Type A in SGF and FaSSIF at 37° C. with adjusting pH to that of the blank medium; settings: for solubility at 2 h / solubility at 4 h: read-out: S (solubility)
Procedure: Detailed procedures are as follows.
1) Added ˜40 mg of sample into a 5-mL glass vial. Add 4 mL of medium. Adjust pH to 1.8 or 6.5 using HCl (1 M) or NaOH (1 M).
2) Rolled at 37° C. (˜25 rpm). Sample at 1, 2, 4 and 24 hrs.
3) At each time-point, sample 0.8 mL of solution or suspension into a centrifuge tube prior to centrifugation (12000 rpm, 37° C., 5 min) and filtration through 0.45 μm PTFE membrane.
4) Adjusted pH of the rest of suspension to 1.8 or 6.5 using HCl (1 M) or NaOH (1 M).

[7] = Hygroscopicity by DVS at 25° C.
Procedure: DVS was measured via a SMS (Surface Measurement Systems) DVS Intrinsic. The relative humidity at 25° C. were calibrated against deliquescence point of LiCl, Mg(NO3)2 and KCl.

[8] = pH 1.8, simulated gastric fluid, thermodynamic from solid, SGF, pH adjusted to 1.8, 37° C., read-out: solubility in SGF
[9] = pH 6.5, thermodynamic from solid, FaSSIF, pH adjusted to 6.5, 37° C., read-out: solubility in FaSSIF

## N#Cc1ccc(COc2cccc(C3CCN(Cc4nc5ccc(C(=O)O)cc5n4Cc4cncs4)CC3)n2)c(F)c1 [Meglumine salt Type A]
[1]; pH 3.5 buffer, pH 3.5, aqueous buffer, LOQ = 0.0001 mg/mL
  solubility at 2 h: 21 µg/mL
[1]; pH 4.5 buffer, pH 4.5, aqueous buffer, LOQ = 0.0001 mg/mL
  solubility at 2 h: 3.7 µg/mL
[1]; pH 4.5 buffer, pH 4.5, aqueous buffer, 24 Hours, LOQ = 0.0001 mg/mL
  solubility at 24 h: 0.1 µg/mL
[1]; pH 5.5 buffer, pH 5.5, aqueous buffer, LOQ = 0.0001 mg/mL
  solubility at 2 h: 2.8 µg/mL
[1]; pH 1, aqueous buffer, pH 1.0 and 8.0 buffers
  solubility: 150 to 1300 µg/mL
[1]; pH 2, aqueous buffer, pH 2.0 and 6.8 buffers
  solubility: 16 to 200 µg/mL
[1]; pH 3.5, aqueous buffer, pH 3.5, 4.5 and 5.5 buffers
  solubility: ≤ 21 µg/mL
[2]
  thermodynamic stability relationship among Meglumine salt forms: thermodynamically more stable anhydrate; also recorded: more thermodynamically stable form; also recorded: thermodynamically more stable form
[3]
  thermodynamic stability, Type A versus Type B: thermodynamically more stable
[4]; 2-MeTHF, RT
  Approximate solubility: S < 1.0 mg/mL
[4]; ACN, RT
  Approximate solubility: S < 1.0 mg/mL
[4]; Acetone, RT
  Approximate solubility: S < 1.1 mg/mL
[4]; Anisole, RT
  Approximate solubility: S < 1.1 mg/mL
[4]; CHCl3, RT
  Approximate solubility: S < 1.0 mg/mL
[4]; CPME, RT
  Approximate solubility: S < 1.0 mg/mL
[4]; DCM, RT
  Approximate solubility: S < 1.1 mg/mL
[4]; EtOAc, RT
  Approximate solubility: S < 1.1 mg/mL
[4]; H2O, RT
  Approximate solubility: S > 44.0 mg/mL
[4]; IPA, RT
  Approximate solubility: S < 1.1 mg/mL
[4]; IPAc, RT
  Approximate solubility: S < 1.0 mg/mL
[4]; MIBK, RT
  Approximate solubility: S < 1.0 mg/mL
[4]; MTBE, RT
  Approximate solubility: S < 1.0 mg/mL
[4]; THF, RT
  Approximate solubility: S < 1.1 mg/mL
[4]; Toluene, RT
  Approximate solubility: S < 1.2 mg/mL
[4]; n-Heptane, RT
  Approximate solubility: S < 1.0 mg/mL
[5]; 25° C./60% RH, 1 week
  HPLC peak Area, RRT 0.70: 0.07%
  HPLC peak Area, RRT 0.73: 0.14%
  HPLC peak Area, RRT 0.80: 0.05%
  HPLC peak Area, RRT 0.83: 1.93%
  HPLC peak Area, RRT 0.90: 0.12%
  HPLC peak Area, RRT 0.99: <0.05%
  HPLC peak Area, RRT 1.05: 0.28%
  HPLC peak Area, RRT 1.10: 0.23%
  HPLC peak Area, RRT 1.12: <0.05%
  HPLC peak Area, RRT 1.15: 0.11%
  HPLC peak Area, RRT 1.34: 0.08%
  HPLC peak Area, RRT 1.00: 96.98%
[5]; 25° C./60% RH/Open/1 week
  Form change: No
  Purity: 96.98 Area %
[5]; 25° C./60% RH/open and 40° C./75% RH/open, 1 week
  solid-state stability: form change and purity decrease: no form change or significant purity decrease
[5]; 40° C./75% RH, 1 week
  HPLC peak Area, RRT 0.70: 0.06%
  HPLC peak Area, RRT 0.73: 0.15%
  HPLC peak Area, RRT 0.80: 0.05%
  HPLC peak Area, RRT 0.83: 1.96%
  HPLC peak Area, RRT 0.90: 0.11%
  HPLC peak Area, RRT 0.99: <0.05%
  HPLC peak Area, RRT 1.05: 0.28%
  HPLC peak Area, RRT 1.10: 0.34%
  HPLC peak Area, RRT 1.12: <0.05%
  HPLC peak Area, RRT 1.15: 0.13%
  HPLC peak Area, RRT 1.34: 0.05%
  HPLC peak Area, RRT 1.00: 96.88%
[5]; 40° C./75% RH/Open/1 week
  Form change: No
  Purity: 96.88 Area %
[5]; Initial
  HPLC peak Area, RRT 0.70: 0.07%
  HPLC peak Area, RRT 0.73: 0.13%
  HPLC peak Area, RRT 0.80: 0.05%
  HPLC peak Area, RRT 0.83: 1.95%
  HPLC peak Area, RRT 0.90: 0.12%
  HPLC peak Area, RRT 0.99: 0.11%
  HPLC peak Area, RRT 1.05: 0.28%
  HPLC peak Area, RRT 1.10: 0.24%
  HPLC peak Area, RRT 1.12: 0.05%
  HPLC peak Area, RRT 1.15: 0.11%
  HPLC peak Area, RRT 1.34: 0.16%
  Purity: 96.73 Area %
  HPLC peak Area, RRT 1.00: 96.73%
[6]; SGF, 37° C., pH adjusted to 1.8, 1 hr
  S (solubility): 730 µg/mL
[6]; pH 1.8, simulated gastric fluid, thermodynamic from solid, SGF, 37° C., pH adjusted to 1.8, 2 hrs
  solubility at 2 h: 160 µg/mL
[6]; pH 1.8, simulated gastric fluid, thermodynamic from solid, SGF, 37° C., pH adjusted to 1.8, 4 hrs
  solubility at 4 h: 120 µg/mL
[6]; [8]
  solubility at 1 h: 730 µg/mL
  solubility at 24 h: 140 µg/mL
[6]; pH 6.5, thermodynamic from solid, FaSSIF, 37° C., pH adjusted to 6.5, 2 hrs
  solubility at 2 h: 14 µg/mL
[6]; pH 6.5, thermodynamic from solid, FaSSIF, 37° C., pH adjusted to 6.5, 4 hrs
  solubility at 4 h: 11 µg/mL
[6]; [9]
  solubility at 1 h: 29 µg/mL
  solubility at 24 h: 6 µg/mL
[7]; 25° C./80% RH
  water uptake (DVS): 1.43%
[7]; DVS, 25° C.
  hygroscopicity: slightly hygroscopic
[7]; DVS, 25° C./80% RH
  Water uptake at 25° C./80% RH: 1.43 wt %
[7]; XRPD after DVS test
  For change after DVS: No
[7]; after DVS test
  form change after DVS test (XRPD): no form change
